According to ChEMBL document CHEMBL1145721, “The secalosides, novel tumor cell growth inhibitory glycosides from a pollen extract” (J Nat Prod, 1997):
Calls of active or inactive are those of the source. The calls are words filed in the database; no cut-off is given here.

Assays:
CCRF S-180 [1] = assay: Cytotoxicity against mouse S180 cells; format: functional, cell-based
CCRF S-180 [2] = assay: In vivo antitumor activity against mouse S180 cells implanted in mouse after 10 days; format: functional, organism-based
CCRF S-180 [3] = assay: In vivo antitumor activity against mouse S180 cells implanted in mouse assessed as cell growth at 2.5 ug/mouse for 10 days relative to control; format: functional
L1210 = assay: Cytotoxicity against mouse L1210 cells; format: functional, cell-based
CCRF S-180 [4] = assay: In vivo antitumor activity against mouse S180 cells implanted in mouse assessed as cell growth at 10 ug/mouse for 10 days relative to control; format: functional
KB = assay: Cytotoxicity against human KB cells; format: functional, cell-based
CCRF S-180 [5] = assay: In vivo antitumor activity against mouse S180 cells implanted in mouse assessed as cell growth at 40 ug/mouse for 10 days relative to control; format: functional
CCRF S-180 [6] = assay: In vivo antitumor activity against mouse S180 cells implanted in mouse assessed as cell growth at 60 ug/mouse for 10 days relative to control; format: functional
CCRF S-180 [7] = assay: Antitumor activity against mouse S180 cells implanted in mouse in presence of cyclophosphamide administered 24 hrs prior to implantation; format: functional, cell-based
CCRF S-180 [8] = assay: In vivo antitumor activity against mouse S180 cells implanted in mouse assessed as cell growth at 20 ug/mouse for 10 days relative to control; format: functional
CCRF S-180 [9] = assay: In vivo antitumor activity against mouse S180 cells implanted in mouse assessed as cell growth at 5 ug/mouse for 10 days relative to control; format: functional
CCRF S-180 [10] = assay: In vivo antitumor activity against mouse S180 cells implanted in mouse assessed as cell growth at 0.625 ug/mouse for 10 days relative to control; format: functional
CCRF S-180 [11] = assay: In vivo antitumor activity against mouse S180 cells implanted in mouse assessed as cell growth at 1.25 ug/mouse for 10 days relative to control; format: functional

| Structure (SMILES) | Activity (CCRF S-180 [1]) | IC50 (CCRF S-180 [2]) | T/C (CCRF S-180 [3]) [%] | Activity (L1210) | T/C (CCRF S-180 [4]) [%] | Activity (KB) | T/C (CCRF S-180 [5]) [%] | T/C (CCRF S-180 [6]) [%] | Activity (CCRF S-180 [7]) | T/C (CCRF S-180 [8]) [%] | T/C (CCRF S-180 [9]) [%] | T/C (CCRF S-180 [10]) [%] | T/C (CCRF S-180 [11]) [%] |
| --- | --- | --- | --- | --- | --- | --- | --- | --- | --- | --- | --- | --- | --- |
| COc1cc(C2c3cc(O[C@@H]4O[C@H](COC(=O)CC5C(=O)Nc6ccccc65)[C@@H](O)[C@H](O)[C@H]4O)c(O)cc3C3C(=O)O[C@H]4[C@H](O)[C@@H](COC(=O)C32)O[C@@]4(CO)O[C@H]2O[C@H](CO)[C@@H](O)[C@H](O)[C@H]2O)ccc1O (stereo not given in full) [SECALOSDIE A/B] | inactive | 5 µg | 70 | inactive | 24 | inactive | 2 | 0 | inactive | 17 | 45 | – | – |
| O=C1CC(C(=O)O)c2ccccc2N1 (racemic) | – | <= 1 ug | 0 | – | 0 | – | – | – | – | 0 | 0 | 62 | 30 |
| O=C(O)CC1C(=O)Nc2ccccc21 (stereo not given) | – | <= 1 ug | 0 | – | 0 | – | – | – | – | 0 | 0 | 36 | 16 |
